PMC10604324, “Implications for Combination Therapy of Selective Monoamine Reuptake Inhibitors on Dopamine Transporters” (Biomedicines, 2023)
Several values for one entry are separate records, joined by “and”; a condition that tells them apart may be missing. Equal entries are not always repeated. Where two headings read alike, the source gives them in different places.

How the values were obtained:
[1] = biological target: human DAT (Homo sapiens, UniProt Q01959); experiment: Fluorescence-based neurotransmitter uptake assay, HEK-hDAT cells; assay type: cell-based
human DAT, sequence (Q01959 whole entry): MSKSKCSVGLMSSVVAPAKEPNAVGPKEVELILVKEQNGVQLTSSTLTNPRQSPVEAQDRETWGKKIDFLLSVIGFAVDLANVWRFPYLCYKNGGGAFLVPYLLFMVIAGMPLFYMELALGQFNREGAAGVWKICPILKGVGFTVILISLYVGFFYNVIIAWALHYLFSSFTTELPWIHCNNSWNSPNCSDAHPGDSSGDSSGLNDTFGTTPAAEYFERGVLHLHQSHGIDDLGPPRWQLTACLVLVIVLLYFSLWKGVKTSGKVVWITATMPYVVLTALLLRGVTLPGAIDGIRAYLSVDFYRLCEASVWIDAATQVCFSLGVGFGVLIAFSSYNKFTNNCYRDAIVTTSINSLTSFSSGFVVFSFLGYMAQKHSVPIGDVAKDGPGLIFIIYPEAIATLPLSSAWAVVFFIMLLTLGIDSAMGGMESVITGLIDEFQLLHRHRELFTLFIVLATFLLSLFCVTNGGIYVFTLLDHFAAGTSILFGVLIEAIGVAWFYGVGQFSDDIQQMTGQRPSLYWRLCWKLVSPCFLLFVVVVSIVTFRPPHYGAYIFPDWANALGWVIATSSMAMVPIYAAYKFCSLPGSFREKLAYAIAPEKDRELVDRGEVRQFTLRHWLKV

[2] = tested on: DAT; design: method as in PMID 10997723; details: effect of isethionate on mazindol binding; cited from earlier work
[3] = tested on: DAT; details: cited from earlier work
[4] = tested on: NET; details: cited from earlier work
[5] = tested on: SERT; details: cited from earlier work
[6] = DAT inhibition by monovalent ions
[7] = read-out: Literature IC50, substrate uptake assay, ref A.J. Eshleman, et al., J Pharmacol Exp Ther 289 (1999) 877-885
[8] = read-out: Literature IC50, substrate uptake assay, ref M.J. Hansard, et al., J Pharmacol Exp Ther 303 (2002) 952-958

C[N+](C)(C)CCO [Choline]
Hill coefficient (h) [1]: 1.4 ± 0.2 | IC50 [1, 6]: 37000 µM and 36600 µM

O=C(O)[C@H](O)[C@@H](O)[C@H](O)[C@H](O)CO [Gluconate]
Hill coefficient (h) [1, 6]: 1.2 ± 0.3 | IC50 [1, 6]: 1400 ± 200 µM

O=S(=O)(O)CCO [Isethionate]
Hill coefficient (h) [1, 6]: 0.8 ± 0.2 | IC50 [1, 6]: 3300 ± 600 µM | reduction of the binding of a DAT inhibitor, mazindol [2]: more than 50%

CNC[C@H](O)[C@H](O)[C@H](O)[C@H](O)CO [NMDG]
Hill coefficient (h) [1, 6]: 11 and 10.6 ± 3.8 | IC50 [1, 6]: 3700 ± 200 µM

CNCCC(Oc1ccccc1OC)c1ccccc1 (stereo not drawn) [Nisoxetine]
IC50 [3, 7]: […] | IC50 [4, 7]: 0.0053 µM | IC50 [5, 7]: […]
